Reference: US10562857B2 (AFASCI, Inc., priority 2015, dated 2020)

Columns and labels:
[1] = test system: PTZ-induced seizures in mice; experiment: Pentylenetetrazol (PTZ)-induced seizures in mice; format: in vivo, mouse
Method: FIG. 10. […] Sixty minutes (min) prior to receiving PTZ (40 mg/kg, I.P.), each mouse was pretreated with either an Example compound, ML218, Z944 or vehicle (2% DMSO in 0.5% HPC). Fatality rate (%) of mice in each group that dies within the 20 minutes observation period—was calculated. Both fatality rate and latency (data not shown) to death were used to evaluate the Example compound's ability to prevent death resulting from PTZ-induced seizures. A cutoff of 20 minutes was set for observational and statistical analysis purposes.
It is well known that antiepileptics, e.g. carbamazepine, lamotrigine and gabapentin are used for the treatment of neuropathic pain (Xie et al., 1995, Caviedes and Herranz, 2001). T-channel overactivation is involved in the generation of seizure activity (Huguenard, 1998, Cribbs et al., 2000, Perez-Reyes et al., 2009, Perez-Reyes, 2010). […] Fatality latency and rate—the percentage (%) of mice in each treatment group that died within a 20 minute cutoff of the observational period, were recorded and calculated. Averaged fatality latency and rate of each treatment group was used to evaluate the Example compound's ability to either prevent or delay the onset of PTZ-induced seizures and death.

DRG ion channels K+ = experiment: Potassium currents in DRG neurons, patch clamp; format: cell-based, rodent; details: Table 2
Method: All the procedures related to animal handling were in strict accordance with NIH guidelines and IACUC approved protocols. Briefly, the spine was taken out and split into two halves from the middle line after sacrificing the mice by decapitation. […] The DRG neurons were minced with fine scissors and incubated at 35° C. for 50 min. […] Finally the cells were dispersed onto poly-1-ornithine-coated cover slips and maintained in a modified Krebs solution with streptomycin sulfate (0.2 mM), Penicillin G Sodium (0.3 mM), and Gentamycin (0.1 mM) at 21° C. […] All experiments were performed at room temperature (around 21° C.). Whole-cell currents were recorded using a MultiClamp 700B amplifier and analyzed offline with pCLAMP10.4 software (Molecular Devices, LLC, Sunnyvale Calif., USA). […] The internal solution was composed (in mM) of 125 CsCl, 10 HEPES (acid), 10 EGTA (ethylene glycol tetraacetic acid), 1 CaCl2, 1 MgCl2, 4 MgATP and 0.3 […] 7.3-7.4 adjusted with CsOH; osmolality verified as 295 mOsm/kg). Since the sodium ions were absent in the external solution, tetrodoctoxin was not needed. […] To record sodium (Na^+) currents in DRG neurons, the external solution used the modified Krebs solution specified above. […] To record potassium currents in DRG neurons, the external solution used the modified Kreb's solution specified above. The internal solution was composed (in mM) of 65 KCl, 80 KF, 5 KOH, 10 EGTA, 2 MgATP (pH 7.3-7.4 adjusted with KOH). Recording electrodes were fabricated using a P-87 puller (Sutter Instrument Co., Novato, Calif., USA). […] All reagents were purchased from Sigma unless specified otherwise. […] Selectivity among the three subtypes of the Cav3 T-type channel, and off-target effects on other key ion channels of the representative example compounds are presented in Table 2. Sodium and potassium channels in the rodent DRG neurons were recorded and tested as described above. The human ether-a-go-go-related gene (hERG) encodes the rapidly activating potassium channel (IKr) contributing to the repolarization of the cardiac action potential. The blockade of hERG can lead to a QT prolongation in the electrocardiogram known as long QT syndrome (Sanguinetti, et al., 1995). Therefore the representative example compounds in Table 2 were tested against the hERG channel.

[2] = 30 mg/kg I.P., PTZ 40 mg/kg I.P., 20 min cutoff

Structure (SMILES): CC(C)(C)NC(=O)CN1CCC(CNC(=O)c2cc(F)cc(Cl)c2)CC1 [Z944, reference compound]
- PTZ-induced Fatality (%) ([1]; 30 mg/kg I.P. 60 min before PTZ 40 mg/kg I.P., death within 20 min): 33.3%
- latency to seizures ([1]; 30 mg/kg I.P., PTZ 40 mg/kg I.P.): significantly prolonged latencies to seizures
- fatality latency [1, 2]: prolonged fatality latencies
- fatality rate [1, 2]: decreased the fatality rate
- IC50 (DRG ion channels K+): > 30 µM
